Assay results as given in a melting point compilation (Tetko et al.; mined from patent text by program, amines drawn as free bases though some values may be those of a salt).

melting point [°C]	Structure (SMILES)
119	CCOC(=O)C(N=C(c1cc(Cl)ccc1N)c1ccccc1F)C(=O)OCC
127	N#Cc1cc(F)c(NC(=O)C=C(N)C(F)(F)F)cc1F
150 to 151	Clc1ccc2c(c1)oc1cc(OCCn3ccnc3)ccc12
175 to 176	CSc1coc2cc(NS(C)(=O)=O)c(Oc3ccccc3)cc2c1=O
101 to 102	CCCCCCNC(=O)c1cnc(Cl)nc1
212	Cc1ccc2c(NCc3ccc(NC(=O)C4CCN(Cc5ccccc5)CC4)cc3)nc(Cl)nc2c1
81 to 82	O=C(C1CCCCC1)N1CC2CC2(c2ccccc2)C1 (stereo unspecified)
122 to 124	COC(=O)c1ccccc1NC(=O)c1ccc(OC)cc1
130 to 132	Cc1cccc(C=CC(=O)c2ccc([N+](=O)[O-])cc2)c1
276 to 278	CC(C)(C)C(=O)c1c[nH]c2ncc(-c3ccccn3)nc12
192	CC(C)(N)c1ccc(-c2nc(Nc3cccc(C(F)(F)F)c3)ncc2C#N)cc1
171 to 172	CC(=O)c1ccc(CC2SC(=O)NC2=O)cc1 (stereo unspecified)
100	CC(NC(=O)Cc1cc(F)cc(F)c1)C(=O)NC1C(=O)NC(c2ccccn2)c2ccccc21 (stereo unspecified)
94	COc1nccc2c([N+](=O)[O-])c(C)ccc12
89 to 92	COC(=O)c1ccc(NCc2cccc(F)c2)cn1
128 to 130	O=C(/C(=C\c1ccc(I)cc1)Sc1ccc(Br)cc1)c1ccc(Br)cc1
104	Fc1cccc(F)c1C1=NC(c2ccc(OCc3ccc(Cl)cc3Cl)cc2)CO1 (stereo unspecified)
170 to 172	CN1CCN(c2cc(Cl)c3c(c2)N(Cc2ccccc2)C(=O)N(Cc2cccc(O)c2)S3(=O)=O)CC1
172 to 175	Cc1[nH]c2ccccc2c1C(=O)CCN(C)C
203 to 205	COC(=O)C1=NNC(C)=C(C(=O)OC)C1c1ccccc1[N+](=O)[O-] (stereo unspecified)
110 to 111	C=C1N(CCCC)C(=O)OC12CCN(CCC=C(c1ccc(Cl)cc1)c1ccc(Cl)cc1)CC2
116	O=c1ccoc(C(O)c2ccccc2F)c1OCc1ccccc1 (stereo unspecified)
125 to 129	CC12CCC3c4ccc(O)cc4CCC3C1CCC2=CF (stereo unspecified)
170 to 173	O=C(O)CC(F)C(=O)c1ccc(-c2ccc(Cl)cc2)cc1 (stereo unspecified)
> 250	Cc1sc(N)nc1-c1ccc2c(c1)CC(=O)N2

melting point [°C]	Structure (SMILES)
146 to 148	COc1ccccc1N1CCN(S(=O)(=O)c2ccc(Nc3ccnc4cc(C(F)(F)F)ccc34)cc2)CC1
135 to 136	Cc1cc(CC(=O)O)cc2c1NC(C(F)(F)F)CC2 (stereo unspecified)
208 to 210	O=C1Cc2cc(C(=O)N3CCN(CCC(=O)c4ccccc4)CC3)ccc2N1
121 to 124	CCCCC1NCCc2ccc(C(=O)N[C@@H](Cc3cc(F)cc(F)c3)[C@H](O)CNCc3cccc(CC)c3)cc21 (stereo partly specified)
266 to 267	Nc1ccc(-c2ccc(=O)[nH]n2)cc1Br
188 to 190	Cc1cc(-c2cn(-c3cccc(OCCCl)c3)c3ncnc(N)c23)cc(C)c1OCc1ccccc1
225 to 230	CCCCn1ncc2cc(/C=C/c3ccc(O)cc3)ccc2c1=O
272 to 273	CN(C)CC(=O)NCc1cccc(-c2cc3c(Nc4ccc(F)c(Cl)c4)ncnc3[nH]2)c1
218 to 220	CSc1ccc(-c2cc(-c3nc4ccccc4c(=O)n3-c3ccccc3)sc2N2CCOCC2)cc1
139 to 142	CCOC(=O)c1cc(NC(=O)C(N)Cc2ccccc2)c[nH]1 (stereo unspecified)
> 250	CC1CCN(c2ccc(-c3nc(C(=O)Nc4nccs4)c(-c4ccc(Cl)cc4)[nH]3)cc2)CC1
99 to 101	O=C(O)C1CSCCC12OCCO2 (stereo unspecified)
208 to 210	CCN(CC)CCNC(=O)c1cccc2c(=O)c3ccc(I)cc3[nH]c12
101	COc1ccccc1C(Cl)=C(Cl)n1ccnc1
227 to 228	OCC1OC(c2n[nH]c3cncnc23)C(O)C1O (stereo unspecified)
144 to 145	O=C(N[C@H](Cc1ccc(C(F)(F)F)cc1)[C@@H](O)c1ccc(F)cc1)c1cccc(Oc2ccccc2)c1 (racemic)
121	Oc1ccccc1-c1noc2ccsc12
279 to 281	CC(C)n1c(=O)nc(-c2cnc3ccccc3c2)c2cc3c(cc21)OCO3
113 to 115	CCOC(=O)COc1ccc2c(c1)C[C@H](NC(=O)OC(C)(C)C)CC2
241 to 246	Oc1cc2c3ccc(O)c(O)c3n(Cc3ccccc3)c2cc1O
148 to 158	COC(=O)C1=C(C)NC(C)=C(C(=O)OCC(C)C)C1c1cccc2nonc12 (stereo unspecified)
136 to 138	CC(C)Cn1c(Nc2cc(C(F)(F)F)ccc2C(F)(F)F)nc(C(F)(F)F)cc1=O
294 to 296	O=c1c2c[nH]c3ccccc3c-2nn1-c1ccc(O)cc1
178 to 180	COc1ccccc1NC(=O)Nc1nc(Oc2ccc3ccccc3c2)nc(N(C)CCC(=O)O)n1
54.9 to 55.2	CCCCc1ccc(C(=O)NCCCCn2c(CCOC)nc3c(N)nc4ccccc4c32)nc1

melting point [°C]	Structure (SMILES)
166 to 168	Cc1ccnc(-n2cc(C#N)ccc2=O)c1
183 to 185	CCOC(=O)c1cnc2n(c1=O)C(C)CCC2=NNC(=O)c1ccc2c(c1)OCO2 (stereo unspecified)
180 to 181	COc1c(C)c2c(c(O)c1C/C=C(\C)C(O)C(C)(C)C(=O)O)C(=O)OC2 (stereo unspecified)
98 to 101	COC(=O)c1ccccc1CS(=O)(=O)NC(=O)Cc1nc(OC)cc(OC)n1
133 to 134	CCc1ccc2ccc(=O)[nH]c2n1
95	Cc1noc(-c2c(C)nc(C#Cc3ccccc3)n2C)n1
122 to 124	COc1ccc2c(c1)Sc1ccc(SC)cc1C(O)C2 (stereo unspecified)
229 to 230	COCC(=O)c1c[nH]c2ncc(-c3cc(OC)c(OC)c(OC)c3)nc12
128 to 132	Nc1nc2c(s1)CCN(CC=Cc1cccc(F)c1)CC2
108 to 116	CCNc1c(C(F)(F)F)cc([N+](=O)[O-])c(NN(C)C)c1[N+](=O)[O-]
135 to 137	Cc1cc(C(=O)N(O)C2CCCCC2)c(C)o1
188 to 191	OC1c2cc(OCc3ccc4cc(F)ccc4n3)ccc2OCC1Cc1cncnc1 (stereo unspecified)
86 to 88	Nc1ccccc1OCCCN1CCC(OC(c2ccccc2)c2ccccc2)CC1
137 to 138	COc1cc(C(=O)C=Cc2cccnc2)cc(OC)c1OC
88 to 92	O=C(O)C1Cc2ccccc2N1S(=O)(=O)c1ccc(-c2ccc(F)cc2F)cc1 (stereo unspecified)
165 to 167	CNc1cc(-c2c(-c3ccc(F)cc3)ccn2C2CCNCC2)ccn1
275 to 278	O=C(O)Cn1c2ccccc2c2sccc(=O)c21
236 to 238	Cc1cc(O)c2c3c(oc(=O)c2c1)C(=O)c1c(O)cccc1C3=O
235 to 236	CCOC(=O)c1ccc(CCN2CCN(CCCS(=O)(=O)O)CC2)cc1
33 to 34	CCSCc1ccc(C(=O)c2ccc(Cl)cc2)cc1
128 to 130	COc1ccc2ccnc(N)c2c1
150	CC(C)OP(=O)(/C=C/CCn1cnc2c(Cl)nc(N)nc21)OC(C)C
206 to 208	COc1cc(OC)c2c(=O)[nH]c(-c3ccc(CN4CCOCC4)cc3)nc2c1
70 to 71	CCc1c(O)c(C(C)=O)c(C)c2c1OC(C)(C)CC2C (stereo unspecified)
226 to 228	CCOC(=O)/C=C/c1cnc(-c2ccc(O)c(C34CC5CC(CC(C5)C3)C4)c2)nc1

melting point [°C]	Structure (SMILES)
188 to 192	Cc1ccc(NC(=O)c2ccc(CN3CCN(CCO)CC3)c(C(F)(F)F)c2)cc1Nc1nccc(-c2cncnc2)n1
135 to 137	S=C=Nc1ccc2oc(-c3ccco3)nc2c1
184 to 185	CCCn1c(=O)c2c(N)n(CC(=O)c3cccc(OC)c3)nc2n(Cc2ccccc2)c1=O
201 to 202	COc1cc2c(Nc3ccc(C)c(OC(C)=O)c3)ncnc2cc1OCc1ccncc1
159 to 160	CCOc1cccc(C2C(C(=O)OC)=C(C)NC(C)=C2C(=O)OC)c1OCC(=O)NCCO[N+](=O)[O-]
132 to 133	COc1ccc(N2C(=O)C(O[Si](C(C)C)(C(C)C)C(C)C)C2c2ccc(C(F)(F)F)cc2)cc1 (stereo unspecified)
95.1	CCOc1cc(-c2ccc(C(F)(F)F)cc2)nc(-c2cccc(C(F)(F)F)c2)c1
94 to 95	Cc1onc(-c2ccc(Cl)cc2)c1CO
131 to 132	S=c1nc2ccc(Cl)cn2c(=S)n1-c1ccc(Cl)cn1
200	O=c1[nH]c2ccc(CCN3CCN(c4cccc5c4CCCC5)CC3)cc2o1
116 to 117	COc1ccc(CCCc2nnc(-c3ccc4occc4c3)o2)cc1
197 to 198	CCOc1ccc(C(=O)c2c(N)sc3c2CCN(C(=O)OCc2ccccc2)C3)cc1
126 to 128	CN(C)C(=Nc1ccccc1N1CCOCC1)N1CCOCC1
179 to 180	Cn1ncnc1COc1nn2c(-c3cnccn3)nncc2c1-c1ccccc1F
211	CCOCc1nc2c(N)nc3cc(Br)ccc3c2n1CCCCNC(=O)NC(C)C
213 to 215	Nc1nc(N)nc(-c2ccc(Sc3ccccc3)cc2)n1
199	CSc1ccc(C(=O)Nc2ccc3ccc(Cl)nc3n2)cc1
266 to 267	CCOc1cc2c(O)c(Br)cnc2nc1C
253 to 254	Cc1cc2c(cc1Sc1ccc(C(=O)O)cc1)C(C)(C)CCC2(C)C
94 to 97	O=C1NC2C3C=CC(C3)C12 (stereo unspecified)
78 to 82	CC(CC(=O)NC(C)(C)C#CCl)Oc1cncc(Cl)c1 (stereo unspecified)
95 to 96	COc1cc(OC)cc(N2CCN(C(=O)Nc3cc(-c4cccnc4)nc4ccccc34)CC2)c1
125 to 128	CC(=O)c1ccc(CNS(=O)(=O)c2ccc(C)cc2)cc1

Structure (SMILES)	melting point [°C]
Nc1ncc(Cl)c(CCl)c1Cl	124 to 126
CC1CC(c2cc3cccc(F)c3s2)CCN1 (stereo unspecified)	45 to 47
Cc1nc2ccc3c(c2o1)OC(CN1C2CCC1CC(O)(c1cccc(C(F)(F)F)c1)C2)CO3 (stereo unspecified)	148 to 150
